Test [1] addresses T1, E3 ubiquitin-protein ligase XIAP (Homo sapiens, UniProt P98170). Briefly: Counter Screen using XIAP-Bir3 for Chemical Antagonists of Bir1/2 domains of IAP-family anti-apoptotic proteins. [Related pubchem assays (depositor defined):AID1018, AID1449, AID1514, AID1638, AID1749, AID1750, AID488957, AID488963].
In test [2] the target is T1, E3 ubiquitin-protein ligase XIAP. Briefly: XIAP antagonists, biochemical, IAP family, fluorescence polarization (AID 1018). It counts as functional. In general terms: Fluorescence polarisation rises when a labelled molecule tumbles more slowly, as on binding a larger partner.
Test [3] can be described thus: cytotoxicity in KRAS-transformed pancreatic duct cells, primary screen, cell-based, fluorescence, HTS (AID 431).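 Further: cell line used: HPDE-C7K.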 The test is classed as functional. Particulars: Homo sapiens.
Another test concerns the target Cytochrome P450 2C9 (Homo sapiens, UniProt P11712).
A short description of test [4]: cytotoxicity in HPDE-C7 cells, cell-based, fluorescence, HTS (AID 430). The test is classed as functional. Particulars: Homo sapiens.
Test [5] has as its target DNA dC->dU-editing enzyme APOBEC-3G (Homo sapiens, UniProt Q9HC16). Kind of test: Dose Response confirmation of small molecule APOBEC3G DNA Deaminase Inhibitors via a fluorescence-based single-stranded DNA deaminase assay. [Related pubchem assays (depositor defined):AID493012, AID493028]. It counts as functional.
Test [6] has as its target DNA dC->dU-editing enzyme APOBEC-3A (Homo sapiens, UniProt P31941). Briefly: APOBEC3A DNA deaminase inhibitors, dose response, biochemical (AID 504722). It counts as functional.
A short description of test [7]: A Cell Based Secondary Assay To Explore Cytotoxicity of Compounds that Sensitize Mycobacterium Tuberculosis to Beta-Lactam Antibiotics. It counts as functional.
Test [8] can be described thus: Vero E6 cell cytotoxicity, dose response, cytotoxicity control for non-replicating M. tuberculosis project, secondary assay (AID 492998). The test is classed as functional, VeroE6. Particulars: Vero C1008.
A short description of the next test: cells. It counts as functional.
Test [9] is described as follows: THP-1 cell cytotoxicity, dose response, cytotoxicity control for non-replicating M. tuberculosis project (AID 489025). It counts as functional.
A further test addresses SUMO-activating enzyme (Homo sapiens, UniProt Q9UBT2). Briefly: SUMOylation inhibitor hit validation, confirmation, SUMOylation inhibitor project, biochemical, AlphaScreen (AID 2018). It counts as functional. In general terms: Bead proximity is the source of the signal in Alpha formats.
A further test concerns the target T2, Protein RecA (Mycobacterium tuberculosis, UniProt P9WHJ3).
T2 sequence (P9WHJ3 whole entry): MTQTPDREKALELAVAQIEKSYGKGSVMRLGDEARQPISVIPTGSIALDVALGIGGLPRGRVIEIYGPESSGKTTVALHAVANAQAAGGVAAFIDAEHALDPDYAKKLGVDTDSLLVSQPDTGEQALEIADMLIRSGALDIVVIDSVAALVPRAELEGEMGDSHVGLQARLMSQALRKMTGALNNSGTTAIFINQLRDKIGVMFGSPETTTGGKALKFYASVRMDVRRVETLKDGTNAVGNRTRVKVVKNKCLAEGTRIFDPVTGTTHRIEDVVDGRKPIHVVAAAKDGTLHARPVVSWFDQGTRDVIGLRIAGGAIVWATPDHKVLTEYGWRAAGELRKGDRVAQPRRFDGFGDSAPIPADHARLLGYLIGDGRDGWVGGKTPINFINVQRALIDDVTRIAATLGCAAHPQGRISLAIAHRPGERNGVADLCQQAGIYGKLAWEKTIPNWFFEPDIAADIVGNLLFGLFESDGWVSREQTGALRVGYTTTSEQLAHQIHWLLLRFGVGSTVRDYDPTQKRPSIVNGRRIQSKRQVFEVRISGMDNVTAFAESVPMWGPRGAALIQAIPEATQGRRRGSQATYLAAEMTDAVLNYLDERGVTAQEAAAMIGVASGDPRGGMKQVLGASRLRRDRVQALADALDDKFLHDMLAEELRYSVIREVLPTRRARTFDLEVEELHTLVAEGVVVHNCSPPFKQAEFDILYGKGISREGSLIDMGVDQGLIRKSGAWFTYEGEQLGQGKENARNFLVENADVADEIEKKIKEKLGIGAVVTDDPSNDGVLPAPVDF
Briefly: Fluorescence Cell-Free Homogeneous Dose Retest to Identify Inhibitors of RecA-Intein Splicing Activity. [Related pubchem assays (depositor defined):AID2097, AID2223, AID489010, AID492950]. The test is classed as functional.

Test [10] has as its target T3, Replicative DNA helicase DnaB (Mycobacterium tuberculosis, UniProt P9WMR3).
T3 sequence (P9WMR3 whole entry): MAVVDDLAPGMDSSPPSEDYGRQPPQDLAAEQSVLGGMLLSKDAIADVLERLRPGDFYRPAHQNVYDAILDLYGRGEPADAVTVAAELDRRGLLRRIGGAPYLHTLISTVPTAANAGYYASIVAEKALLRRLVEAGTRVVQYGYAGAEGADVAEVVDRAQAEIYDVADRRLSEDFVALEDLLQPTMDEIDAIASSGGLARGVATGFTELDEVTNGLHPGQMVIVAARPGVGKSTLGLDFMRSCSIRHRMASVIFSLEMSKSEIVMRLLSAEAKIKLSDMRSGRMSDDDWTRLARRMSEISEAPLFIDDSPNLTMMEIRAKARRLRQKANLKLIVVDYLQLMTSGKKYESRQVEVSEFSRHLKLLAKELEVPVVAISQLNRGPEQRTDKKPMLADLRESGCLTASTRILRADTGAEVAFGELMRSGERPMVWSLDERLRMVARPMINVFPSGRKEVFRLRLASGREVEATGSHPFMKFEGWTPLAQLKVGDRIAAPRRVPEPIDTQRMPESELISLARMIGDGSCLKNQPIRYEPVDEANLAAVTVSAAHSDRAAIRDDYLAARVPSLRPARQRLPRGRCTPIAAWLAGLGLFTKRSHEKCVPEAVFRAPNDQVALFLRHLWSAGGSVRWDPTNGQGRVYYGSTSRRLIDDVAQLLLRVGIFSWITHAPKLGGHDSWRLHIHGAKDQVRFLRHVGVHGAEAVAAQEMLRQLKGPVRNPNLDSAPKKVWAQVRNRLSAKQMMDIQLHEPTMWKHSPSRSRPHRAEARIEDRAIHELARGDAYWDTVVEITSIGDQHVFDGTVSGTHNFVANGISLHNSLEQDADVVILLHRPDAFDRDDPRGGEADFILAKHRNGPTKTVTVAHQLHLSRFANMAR
Kind of test: DnaB intein splicing inhibitors, dose response, biochemical, cell-free fluorescence (AID 449749). The test is classed as functional.

Test [11] is described as follows: M. tuberculosis H37Rv growth inhibitors, H37Rv strain (AID 1626). The test is classed as functional.
In a further test the target is T4, fMet-Leu-Phe receptor (Homo sapiens, UniProt P21462).
T4 sequence (P21462 whole entry): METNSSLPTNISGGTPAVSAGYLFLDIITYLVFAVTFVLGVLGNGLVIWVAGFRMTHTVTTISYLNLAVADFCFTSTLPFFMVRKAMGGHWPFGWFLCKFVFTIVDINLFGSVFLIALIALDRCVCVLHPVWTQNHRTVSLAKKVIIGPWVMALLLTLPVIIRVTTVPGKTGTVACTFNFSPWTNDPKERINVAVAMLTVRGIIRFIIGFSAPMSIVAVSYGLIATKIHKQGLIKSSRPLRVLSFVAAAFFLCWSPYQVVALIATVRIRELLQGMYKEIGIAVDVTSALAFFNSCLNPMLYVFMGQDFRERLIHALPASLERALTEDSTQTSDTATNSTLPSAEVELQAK
Kind of test: FPR ligands, dose response (AID 519). The test is classed as functional.

Another test relates to Streptococcus. Kind of test: Group A Streptococcus viability loss, dose response, counter-screen for streptokinase expression inhibitor project, luminescence, BacTiterGlo (AID 1915).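 Further: potency for reduction of bacterial viability or growth.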 The test is classed as functional, organism-based. In general terms: A counterscreen serves to expose hits that act by an unwanted route or on another target.
Test [12] has as its system Streptococcus sp. 'group A'. Kind of test: growth inhibition of control SK(-) GAS strain, dose response, counter-screen for streptokinase expression inhibitor project, luminescence, kanamycin, BacTiterGlo, confirmation (AID 1900). It counts as functional, organism-based.
The target of the next test is Large T antigen (Simian virus 40, UniProt P03070). It counts as functional, Betapolyomavirus macacae.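 Further: Confirmatory-stage PubChem screen for compounds that inhibit SV40 T antigen.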
Sequence of Large T antigen (P03070 whole entry): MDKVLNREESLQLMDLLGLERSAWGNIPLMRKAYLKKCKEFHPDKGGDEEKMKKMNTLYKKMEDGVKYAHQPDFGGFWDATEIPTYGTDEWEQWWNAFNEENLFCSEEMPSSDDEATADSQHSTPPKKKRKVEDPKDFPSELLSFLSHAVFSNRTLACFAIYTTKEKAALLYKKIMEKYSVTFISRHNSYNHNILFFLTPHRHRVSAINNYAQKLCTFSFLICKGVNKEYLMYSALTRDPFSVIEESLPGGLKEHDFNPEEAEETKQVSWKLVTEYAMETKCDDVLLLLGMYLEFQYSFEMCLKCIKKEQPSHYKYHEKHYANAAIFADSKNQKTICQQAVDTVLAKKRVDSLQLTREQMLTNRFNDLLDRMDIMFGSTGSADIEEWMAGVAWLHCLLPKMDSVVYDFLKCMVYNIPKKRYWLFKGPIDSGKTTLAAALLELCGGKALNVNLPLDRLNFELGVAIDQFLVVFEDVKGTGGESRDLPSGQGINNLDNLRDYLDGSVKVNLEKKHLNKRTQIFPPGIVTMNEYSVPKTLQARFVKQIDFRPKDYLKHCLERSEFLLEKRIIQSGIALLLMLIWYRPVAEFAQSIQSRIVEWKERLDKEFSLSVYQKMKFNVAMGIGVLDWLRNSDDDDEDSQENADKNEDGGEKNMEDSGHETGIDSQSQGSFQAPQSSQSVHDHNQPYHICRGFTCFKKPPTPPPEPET
A further test deals with T5, Hexokinase HKDC1 (Homo sapiens, UniProt Q2TB90).
T5 sequence (Q2TB90 whole entry): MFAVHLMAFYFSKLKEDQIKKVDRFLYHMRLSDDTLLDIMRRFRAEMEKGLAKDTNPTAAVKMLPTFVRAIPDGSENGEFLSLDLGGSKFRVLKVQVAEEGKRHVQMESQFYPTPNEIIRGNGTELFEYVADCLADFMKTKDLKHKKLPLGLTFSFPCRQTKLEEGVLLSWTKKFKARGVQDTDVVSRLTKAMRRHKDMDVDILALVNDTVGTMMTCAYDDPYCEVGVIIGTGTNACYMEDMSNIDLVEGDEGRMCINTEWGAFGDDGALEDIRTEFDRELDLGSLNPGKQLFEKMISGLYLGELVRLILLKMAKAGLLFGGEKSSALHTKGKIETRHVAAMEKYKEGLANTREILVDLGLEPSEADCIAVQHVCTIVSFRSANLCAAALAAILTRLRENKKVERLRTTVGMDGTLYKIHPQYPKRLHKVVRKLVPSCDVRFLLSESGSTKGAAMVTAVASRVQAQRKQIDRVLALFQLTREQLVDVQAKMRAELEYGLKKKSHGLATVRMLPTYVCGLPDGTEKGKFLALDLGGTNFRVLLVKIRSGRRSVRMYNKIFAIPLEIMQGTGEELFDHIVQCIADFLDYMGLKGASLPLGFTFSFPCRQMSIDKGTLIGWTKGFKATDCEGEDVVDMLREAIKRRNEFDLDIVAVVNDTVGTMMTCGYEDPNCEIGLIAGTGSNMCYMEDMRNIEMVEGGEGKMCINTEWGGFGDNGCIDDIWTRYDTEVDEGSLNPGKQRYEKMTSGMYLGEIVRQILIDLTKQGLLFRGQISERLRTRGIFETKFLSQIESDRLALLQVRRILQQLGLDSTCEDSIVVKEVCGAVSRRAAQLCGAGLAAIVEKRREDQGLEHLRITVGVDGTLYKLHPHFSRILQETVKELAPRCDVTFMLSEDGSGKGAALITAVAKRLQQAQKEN
Kind of test: HKDC1 hexokinase inhibitors, dose response, biochemical, W721R variant (AID 504729). It counts as functional.

Structures are written as SMILES. Active and inactive are the calls of the source.

Sequence of DNA dC->dU-editing enzyme APOBEC-3G (Q9HC16 whole entry): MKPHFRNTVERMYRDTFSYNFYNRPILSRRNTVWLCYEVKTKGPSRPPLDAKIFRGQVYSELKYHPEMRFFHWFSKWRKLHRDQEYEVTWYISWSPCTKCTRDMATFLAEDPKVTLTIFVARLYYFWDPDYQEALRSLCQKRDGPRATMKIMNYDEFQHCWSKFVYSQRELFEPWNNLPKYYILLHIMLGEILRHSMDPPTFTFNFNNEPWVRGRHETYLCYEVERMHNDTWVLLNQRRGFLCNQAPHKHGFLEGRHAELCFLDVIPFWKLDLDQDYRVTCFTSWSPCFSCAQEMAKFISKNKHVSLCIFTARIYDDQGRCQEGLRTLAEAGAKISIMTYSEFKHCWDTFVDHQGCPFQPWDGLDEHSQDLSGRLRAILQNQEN
Sequence of DNA dC->dU-editing enzyme APOBEC-3A (P31941 whole entry): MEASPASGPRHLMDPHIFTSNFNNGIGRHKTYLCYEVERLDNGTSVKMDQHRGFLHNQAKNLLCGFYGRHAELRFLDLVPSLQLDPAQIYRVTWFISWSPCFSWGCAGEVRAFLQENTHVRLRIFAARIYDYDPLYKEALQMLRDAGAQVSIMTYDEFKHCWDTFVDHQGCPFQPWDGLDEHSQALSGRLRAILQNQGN
T1 sequence (P98170 whole entry): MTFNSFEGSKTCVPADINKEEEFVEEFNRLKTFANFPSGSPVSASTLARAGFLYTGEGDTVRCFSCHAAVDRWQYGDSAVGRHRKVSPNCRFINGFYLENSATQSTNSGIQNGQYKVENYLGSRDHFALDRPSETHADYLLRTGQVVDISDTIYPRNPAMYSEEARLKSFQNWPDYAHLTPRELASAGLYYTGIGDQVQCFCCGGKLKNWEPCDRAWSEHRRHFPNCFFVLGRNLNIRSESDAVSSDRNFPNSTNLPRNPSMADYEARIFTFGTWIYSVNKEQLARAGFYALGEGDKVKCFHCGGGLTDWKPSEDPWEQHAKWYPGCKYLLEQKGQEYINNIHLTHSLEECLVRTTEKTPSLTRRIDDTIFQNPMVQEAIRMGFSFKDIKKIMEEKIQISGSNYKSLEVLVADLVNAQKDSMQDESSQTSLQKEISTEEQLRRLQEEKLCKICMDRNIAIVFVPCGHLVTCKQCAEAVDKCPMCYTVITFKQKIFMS
Sequence of SUMO-activating enzyme (Q9UBE0 whole entry): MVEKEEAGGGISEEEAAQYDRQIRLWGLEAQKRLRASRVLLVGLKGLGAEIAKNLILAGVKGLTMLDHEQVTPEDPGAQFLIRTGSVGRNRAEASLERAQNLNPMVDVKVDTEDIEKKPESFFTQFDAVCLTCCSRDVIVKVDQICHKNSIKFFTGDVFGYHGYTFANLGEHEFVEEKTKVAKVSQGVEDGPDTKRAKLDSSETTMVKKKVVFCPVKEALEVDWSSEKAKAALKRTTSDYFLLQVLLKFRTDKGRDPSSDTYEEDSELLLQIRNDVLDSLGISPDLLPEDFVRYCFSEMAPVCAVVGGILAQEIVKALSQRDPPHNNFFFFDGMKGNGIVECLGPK
Sequence of SUMO-activating enzyme (Q9UBT2 whole entry): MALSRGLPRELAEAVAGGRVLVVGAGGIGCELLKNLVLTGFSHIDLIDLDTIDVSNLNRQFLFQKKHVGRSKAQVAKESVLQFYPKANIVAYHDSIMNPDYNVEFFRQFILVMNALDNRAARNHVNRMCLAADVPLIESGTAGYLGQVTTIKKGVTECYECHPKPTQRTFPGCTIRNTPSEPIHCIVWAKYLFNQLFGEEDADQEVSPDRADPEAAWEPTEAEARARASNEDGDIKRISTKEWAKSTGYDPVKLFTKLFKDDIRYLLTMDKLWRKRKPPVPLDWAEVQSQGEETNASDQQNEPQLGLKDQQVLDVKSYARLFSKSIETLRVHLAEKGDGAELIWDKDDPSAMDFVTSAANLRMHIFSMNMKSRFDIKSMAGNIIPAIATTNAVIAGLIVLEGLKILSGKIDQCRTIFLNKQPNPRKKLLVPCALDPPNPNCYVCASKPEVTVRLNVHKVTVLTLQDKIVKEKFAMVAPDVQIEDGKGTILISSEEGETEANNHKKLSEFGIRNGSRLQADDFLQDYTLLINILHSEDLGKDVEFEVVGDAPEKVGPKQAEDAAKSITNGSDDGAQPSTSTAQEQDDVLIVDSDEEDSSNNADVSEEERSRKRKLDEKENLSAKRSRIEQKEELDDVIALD
Sequence of Cytochrome P450 2C9 (P11712 whole entry): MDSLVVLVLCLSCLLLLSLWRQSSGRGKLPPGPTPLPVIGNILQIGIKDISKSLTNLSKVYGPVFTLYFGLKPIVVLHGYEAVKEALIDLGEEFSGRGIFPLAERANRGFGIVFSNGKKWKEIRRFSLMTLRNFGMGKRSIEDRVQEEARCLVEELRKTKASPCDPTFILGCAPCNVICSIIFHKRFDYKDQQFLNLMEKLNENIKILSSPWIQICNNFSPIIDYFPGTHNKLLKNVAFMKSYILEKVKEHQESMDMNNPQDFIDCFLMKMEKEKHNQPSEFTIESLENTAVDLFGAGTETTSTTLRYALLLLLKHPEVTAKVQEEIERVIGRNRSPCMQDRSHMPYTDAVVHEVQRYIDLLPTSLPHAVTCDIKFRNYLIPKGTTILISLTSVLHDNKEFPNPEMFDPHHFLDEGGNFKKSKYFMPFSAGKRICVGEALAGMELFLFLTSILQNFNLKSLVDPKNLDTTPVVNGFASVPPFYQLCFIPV

By IC50 is commonly meant the concentration that inhibits the measured activity by half. Regarding `COCCn1nnnc1C(C(C)C)N(Cc1ccccc1)Cc1cc2cc(OC)ccc2nc1O` (centres undefined), the IC50 in [1] was > 100 µM (inactive); in test [2] it was > 100 µM (not active).
Usually EC50 stands for the concentration giving half of the maximal effect. Broadly, the AC50 is the midpoint of the concentration-response curve, whichever way the signal moves. Regarding `CS(=O)(=O)N(Cc1cc2ccccc2nc1O)C1CCCCC1`, the EC50 in [3] and in test [4] was > 20 µM (not active) in each case. Besides, the AC50 at Cytochrome P450 2C9 was 39.8 µM (inconclusive).
For `CC(=O)N1CC[n+]2c(-c3ccc([N+](=O)[O-])cc3)csc21`, the IC50 in test [5] was 13.3 µM (active); in [6], > 100 µM (inactive).
A word on the CC50: it is the concentration giving 50% cytotoxicity. On to `O=C(CCS(=O)(=O)c1ccc(F)cc1)Nc1nnc(-c2cccs2)o1`, for which, in test [7], the CC50 was 24.3 µM (active).
Turning to `COc1ccc(NC(=O)CCCN2C(=O)/C(=C\c3ccco3)SC2=S)cc1`, the CC50 in test [8] was 16 µM (active); in [9], > 40 µM (active). Moreover, the IC50 in “cells” was 23.4 µM (active); in test [1], > 25 µM (inactive); in [2], > 100 µM (not active).
For the compound `O=C1N/C(=N\c2ccc3ccccc3c2)S/C1=C/c1ccco1`, on SUMO-activating enzyme, the IC50 is 14 µM (active).
As for `CCOc1ccc(N2C(=O)/C(=C\c3ccc(OC)c(O)c3)S(=O)(=O)C2c2cccc([N+](=O)[O-])c2)cc1` (centres undefined), the half-maximal effective concentration (EC50) on Protein RecA was 6.38 µM (active). Moreover, the AC50 in test [10] was 10.2 µM (active). The half-maximal inhibitory concentration (IC50) in test [11] was > 100 µM (active).
As usually defined, the Ki is a dissociation constant, usually derived from enzyme kinetics or from competition with a known ligand. As to `CCCCNC(=O)c1sc(=S)n2c1[nH]c(=O)c1ccccc12`, on fMet-Leu-Phe receptor, the Ki is 19.6 µM (inactive). Besides, the EC50 in the test with Streptococcus was 13.1 µM (active); in test [12], 11.2 µM (active). Also, the IC50 is 79.6 µM (active) at Large T antigen and 18.8 µM (active) on Hexokinase HKDC1.
With `Cc1cc(C)c(N/C=C2/C(=O)N(c3nccs3)C(=O)c3ccccc32)c(C)c1`, the CC50 in test [7] is > 40 µM (active).
As to `CCCc1nc2oc3c(NCCOCCO)ncnc3c2c2c1COC(C)(C)C2`, the IC50 at Hexokinase HKDC1 was 12.4 µM (active).
For `Cc1nn(C)c(C)c1NC(=O)CCCSc1nc(-c2ccco2)cc(C(F)(F)F)n1`, in test [7], the CC50 was > 40 µM (active).
In the case of `Cn1cccc1/C=N/n1c(S)nnc1-c1ccccc1`, the IC50 was 1.78 µM (active) in test [5] and > 100 µM (inactive) in test [6].
In the same order, the values of `COc1ccccc1/C=C/C=N/n1c(S)nnc1-c1ccccn1` are 2.67 µM (active) and > 100 µM (inactive).

The values above are taken from ChEMBL document CHEMBL1201862, “PubChem BioAssay data set” (2004).
